From patent US20150065717A1, “NIPECOTIC ACID DERIVATIVE AND USE THEREOF FOR MEDICAL PURPOSES” (Toray Industries, Inc., priority 2012, published 2015)

How the values were obtained:
recombinant human sEH = molecular target: T1, recombinant human sEH (Homo sapiens, UniProt P34913); experiment: In vitro evaluation test for sEH inhibitory activity; type: biochemical; details: recombinant human sEH 0.026 μg/mL, fluorescent substrate 6.25 μmol/L, room temperature
T1 construct: purchased Cayman
T1 sequence (P34913 1-555): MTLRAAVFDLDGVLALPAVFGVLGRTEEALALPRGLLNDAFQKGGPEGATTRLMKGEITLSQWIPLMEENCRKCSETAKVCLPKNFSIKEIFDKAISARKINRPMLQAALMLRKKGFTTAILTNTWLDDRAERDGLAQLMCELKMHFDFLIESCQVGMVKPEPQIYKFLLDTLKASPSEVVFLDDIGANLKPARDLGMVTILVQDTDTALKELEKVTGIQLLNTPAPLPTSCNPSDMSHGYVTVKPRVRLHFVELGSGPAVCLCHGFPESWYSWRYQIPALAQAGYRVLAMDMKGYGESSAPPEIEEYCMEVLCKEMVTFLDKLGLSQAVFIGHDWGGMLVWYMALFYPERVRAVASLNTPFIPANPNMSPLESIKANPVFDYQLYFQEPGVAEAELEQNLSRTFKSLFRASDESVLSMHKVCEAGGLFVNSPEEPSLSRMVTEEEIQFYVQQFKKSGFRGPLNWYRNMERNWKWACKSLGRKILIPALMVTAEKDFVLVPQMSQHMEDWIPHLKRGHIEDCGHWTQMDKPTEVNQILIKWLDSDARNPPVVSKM
Experimental: According to the method described in a known document (Analytical Biochemistry, 2005, vol. 343, p. 66-75), the sEH inhibitory activity of each nipecotic acid derivative (I) or a pharmaceutically acceptable salt thereof was evaluated using human sEH.
A recombinant human sEH (final concentration, 0.026 μg/mL; Cayman) was incubated with each test compound in 25 mM Bis-Tris-HCl buffer (pH 7.0) supplemented with 0.1 mg/mL BSA at room temperature for 30 minutes. Thereafter, cyano(6-methoxynaphthalen-2-yl)methyl 2-(3-phenyloxiran-2-yl)acetate (final concentration, 6.25 μmol/L; Cayman) was added thereto as a fluorescent substrate, and the resulting mixture was incubated at room temperature for 20 minutes. The reaction was then stopped by addition of ZnSO4 (final concentration, 0.2 mol/L), and the fluorescence intensity was measured (Fusion α (Packard); Excitation: 330 nm, Emission:485 nm).
The fluorescence intensity observed with addition of neither sEH nor a test compound was regarded as the sEH enzymatic reaction rate of 0%, and the fluorescence intensity observed with addition of sEH but without addition of a test compound was regarded as the sEH enzymatic reaction rate of 100%. From the obtained fluorescence intensity, the sEH enzymatic reaction rate of each test compound was calculated to determine IC50.

[1] = tested on: rat monocrotaline-administered pulmonary hypertension model; experiment: Rat monocrotaline-administered pulmonary hypertension model, administration from day of monocrotaline; type: in vivo, rat (Wistar strain); details: for heart rate vs pulmonary hypertension control group / systemic systolic pressure vs pulmonary hypertension control group: Dunnett's test; for right ventricular systolic pressure vs pulmonary hypertension control group / right ventricular weight ratio vs pulmonary hypertension control group: Dunnett's test p<0.05
Experimental: Example Compound 1 or 2 was administered to a rat monocrotaline-administered pulmonary hypertension model (Journal of Pharmacological Sciences, 2009, vol. 111, p. 235-243), and the therapeutic effect of the nipecotic acid derivative (I) or a pharmaceutically acceptable salt thereof on pulmonary hypertension was evaluated.
Rats (Wistar strain, male, 5 weeks old; JAPAN SLC, Inc.) with pulmonary hypertension induced by subcutaneous administration of an aqueous monocrotaline (Sigma Corporation) solution (60 mg/kg) to the back were provided as “group with induced pulmonary hypertension”. On the other hand, rats to which water for injection was similarly administered were provided as “normal group”.
To rats in the group with induced pulmonary hypertension, Example Compound 1 (3, 10 or 30 mg/kg) or a positive control compound tadalafil (10 mg/kg) was orally administered once per day for 24 days from the day of administration of monocrotaline. The Example Compound 1 and tadalafil were used as suspensions in 0.5% aqueous methyl cellulose solution supplemented with 0.5% Tween 80. The groups in which Example Compound 1 was administered at doses of 3, 10 and 30 mg/kg were provided as “Example Compound 1 (3 mg/kg)-administered group”, “Example Compound 1 (10 mg/kg)-administered group” and “Example Compound 1 (30 mg/kg)-administered group”, respectively. The group in which tadalafil was administered at a dose of 10 mg/kg was provided as “tadalafil-administered group”. In addition, for comparative control, 0.5% aqueous methyl cellulose solution supplemented with 0.5% Tween 80 was similarly administered to rats in the group with induced pulmonary hypertension, to provide “pulmonary hypertension control group”. Similarly, 0.5% aqueous methyl cellulose solution supplemented with 0.5% Tween 80 was administered in the normal group.
On the next day of the last administration of the test substance, the right ventricular systolic pressure, systemic systolic pressure and heart rate were measured. The measurement of the right ventricular systolic pressure and the systemic systolic pressure was carried out using an amplifier for blood pressure measurement (Nihon Kohden Corporation). The measurement of the heart rate was carried out using an instant heart rate meter unit (Nihon Kohden Corporation). On the same day, the body weight, lung wet weight, and wet weights of the right ventricle, left ventricle and septum were measured to determine the right ventricular weight ratio (right ventricular weight/(septum weight+left ventricular weight)) and the lung weight ratio (lung weight/body weight).
The lungs were stored by immersion in formalin after measurement of the wet weight. The formalin-fixed lungs were embedded in paraffin, and sections were prepared. Immunostained tissue samples were prepared using an anti-sEH antibody to study expression of sEH. Pathological specimens were prepared by Elastica-van Gieson staining to study thickening of pulmonary arteries. Immunostained tissue samples were prepared using an anti-PCNA antibody to study cell growth. The right ventricle was stored by immersion in formalin after measurement of the wet weight. The formalin-fixed right ventricle was embedded in paraffin, and sections were prepared. Pathological specimens were prepared by HE staining to study myocardial hypertrophy.
The removed lungs were homogenized in a buffer, and 14,15-EET and 14,15-DHET were extracted. The extracted 14,15-EET was hydrolyzed for conversion to 14,15-DHET, and the 14,15-DHET concentration was measured by the ELISA method. The increase in the concentration of 14,15-DHET due to the hydrolysis was regarded as the 14,15-EET concentration, and the 14,15-EET/14,15-DHET ratio was determined.
FIGS. 4 to 6 show the results on the right ventricular systolic pressure, right ventricular weight ratio and lung weight ratio determined on the next day of the last administration of the test compound. […]

[2] = 3 mg/kg orally once per day for 24 days
[3] = 10 mg/kg orally once per day for 24 days from day of monocrotaline
[4] = 10 mg/kg orally once per day for 24 days
[5] = 30 mg/kg orally once per day for 24 days from day of monocrotaline
[6] = 30 mg/kg orally once per day for 24 days

SMILES | IC50 (recombinant human sEH) | heart rate vs pulmonary hypertension control group [1, 2] | systemic systolic pressure vs pulmonary hypertension control group [1, 2] | thickening of pulmonary arteries in lungs vs pulmonary hypertension control group ([1]; 3 mg/kg, Elastica-van Gieson staining) | myocardial hypertrophy of the right ventricle vs pulmonary hypertension control group ([1]; 3 mg/kg, HE staining) | cell growth in lungs vs pulmonary hypertension control group ([1]; 3 mg/kg, anti-PCNA immunostaining) | lung weight ratio vs pulmonary hypertension control group [1, 3] | right ventricular systolic pressure vs pulmonary hypertension control group [1, 3] | right ventricular weight ratio vs pulmonary hypertension control group [1, 3] | heart rate vs pulmonary hypertension control group [1, 4] | systemic systolic pressure vs pulmonary hypertension control group [1, 4] | 14,15-EET/14,15-DHET ratio in lungs vs pulmonary hypertension control group ([1]; 10 mg/kg, ELISA) | right ventricular systolic pressure vs pulmonary hypertension control group [1, 5] | right ventricular weight ratio vs pulmonary hypertension control group [1, 5] | heart rate vs pulmonary hypertension control group [1, 6] | systemic systolic pressure vs pulmonary hypertension control group [1, 6]
CCC(=O)NC1(C(=O)N2CCC[C@@H](C(=O)NCc3ccc(C#N)cc3OC(F)(F)F)C2)CCC1 [Example Compound 1, (R)—N-(4-cyano-2-(trifluoromethoxy)benzyl)-1-(1-propionamidocyclobutanecarbonyl)piperidine-3-carboxamide] | 1.1 nM | not significantly different | not significantly different | less thickened pulmonary arteries | less myocardial hypertrophy | less cell growth | statistically significantly lower | statistically significantly lower | statistically significantly lower | not significantly different | not significantly different | higher | statistically significantly lower | statistically significantly lower | not significantly different | not significantly different
CC(C)(NS(C)(=O)=O)C(=O)N1CCC[C@@H](C(=O)NCc2ccc(C#N)cc2OC(F)(F)F)C1 [Example Compound 2, (R)—N-(4-cyano-2-(trifluoromethoxy)benzyl)-1-(2-methyl-2-(methylsulfonamido)propanoyl)piperidine-3-carboxamide] | 2.1 nM | – | – | – | – | – | lower | statistically significantly lower | statistically significantly lower | not significantly different | not significantly different | – | – | – | – | –
